Measured values as given in patent publication US20120159656A1, “COMPOSITIONS AND METHODS FOR […] DEFECTS” (Galenea Corp., priority 2009, published 2012).
Entries after “also recorded” stand apart in the source; their conditions may differ.

Legend:
[1] = system: high-power gamma oscillations in the PFC; assay: EEG recording from PFC in absence and presence of novel objects before and after PCP; format: in vivo, mouse; conditions: PCP 5 mg/kg intraperitoneal, gamma 30-90 Hz
Description: Real-time monitoring of EEGs and single-unit activity (SUA) from PFC was performed via surgical implantation of 8-microwire bundle electrodes (FIG. 5A, B). […] Recordings were made using commercially available multichannel hardware (Multichannel Systems, Reutlingen, Germany). The system is capable of monitoring EEGs and SUA from PFC in freely behaving mice (FIG. 5C) and this neural activity has been characterized (FIG. 5D).
In another series of experiments, the EEG recording techniques were determined to be sensitive enough to detect pharmacologically-induced perturbations in neural activity in vivo. For these studies EEGs from PFC were measured when mice were in the absence and presence of novel environmental stimuli. To determine whether EEGs recorded from PFC are sensitive to a pharmacologic manipulation known to impair cognitive function, animals were injected intraperitoneally with PCP (5 mg/kg) and EEGs were recorded in the absence and presence of novel environmental stimuli. This experiment confirmed that high-power gamma oscillations in the PFC were elicited while animals attend to novel stimuli in the environment (FIG. 10A). […] These observations confirm that the techniques for monitoring EEGs and SUA in the PFC of freely behaving mice are sensitive enough to detect treatments known to inhibit cognition.

EEG power in the PFC = assay: Spectral analysis of PFC EEG by frequency band (area under the curve) in a familiar environment; format: in vivo, mouse
Description: Surgery, Animal handling and EEG recording were performed according to the methods disclosed herein (See, e.g., Examples 1-5). Recordings in a novel environment were made upon an animal's first exposure to the recording chamber. Animals were exposed to the recording chamber an additional 3 times (15 min each) to record EEGs from a familiar environment (fourth exposure).
EEG analysis. EEGs were analyzed using an automated FFT-periodogram function with Hamming windows in the Matlab analysis suite (pwelch function, The Mathworks, Inc., Natick MA). EEGs were analyzed in 10 sec intervals and power spectral analyses were computed for each 10 sec interval by averaging 1 sec power spectra with a 0.5 sec overlap across the entire 10 sec. Power across a given frequency band was determined by computing the area under the curve for various frequency bands (Theta: 4-12 Hz; GammaLow: 30-55 Hz; GammaHi: 65-90 Hz; Ripple: 100-300 Hz). Measures of power for each animal were binned and a frequency histogram representing number of events (10 sec each) observed at each power was computed. Frequency histograms across a given genotype were averaged to derive the final EEG power histogram for each frequency band.
To investigate the disease relevance of this intermediate power phenotype, EEGs were recorded from normal control animals in a familiar environment before and after they were treated with the psychotomimetic compound, phencyclidine (PCP) (5 mg/kg, IP).

[2] = system: gamma oscillations recorded from prefrontal cortex (PFC); assay: Continuous EEG recording from PFC of well-habituated mice, maximal gamma power (30-90 Hz); conditions: PCP 5 mg/kg
[3] = control animals, PCP 5 mg/kg IP

Question: What does the source list for `c1ccc(C2(N3CCCCC3)CCCCC2)cc1` [PCP, phencyclidine]?
Answer: expression of high-power gamma oscillations during novel object presentation [1]: completely blocked the expression of high-power gamma oscillations; also recorded: lack of a bimodal distribution in gamma oscillation power; average power in the GammaHi frequency band (65-90 Hz) (EEG power in the PFC; control animals treated with PCP 5 mg/kg IP, n=5): 19.12±0.11; effect on power in the GammaHi frequency band (65-90 Hz) (EEG power in the PFC; [3]): significant increase in the number of high-powered events; also recorded: increased the average spectral power; effect on power in the GammaLow frequency band (30-55 Hz) (EEG power in the PFC; [3]): significantly more high-powered GammaLow events; also recorded: increased the average spectral power; effect on power in the Ripple frequency band (100-300 Hz) (EEG power in the PFC; [3]): no significant differences in power; also recorded: no effect; effect on power in the Theta frequency band (4-12 Hz) (EEG power in the PFC; [3]): significant increase; also recorded: increased the average spectral power; distribution of the power of gamma oscillations ([2]; familiar environment, normal mice): unimodal distribution of gamma oscillations with “Intermediate” power; gamma oscillation power after injection ([2]; well-habituated animals, gamma 30-90 Hz): 4 μV^2/Hz
